Laboratory results published in patent US7148194B2, “Method to increase fibronectin” (Kimberly-Clark Worldwide, Inc., priority 2002, dated 2006).

What was measured:
[1] = test system: normal human dermal fibroblasts; assay: fibroblast proliferation, Cell Titer 96, OD 490 nm; format: cell-based; set-up: fibroblast cell density versus control: dose or concentration left out as unconfirmed; details: 28 hours
Method: A human skin fibroblast cell line (Clonetics, Walkersville, Md., normal human dermal fibroblasts, neonatal, catalog number CC-2509) was tested to ascertain whether exposure to a peptide would stimulate cellular proliferation. […] Plates were incubated for 24 hours at 37° C. in a humidified 5% CO2 atmosphere. After incubation, the medium was aspirated and the wells were rinsed twice with 100 μl of serum-free DMEM. […] In addition, 100 μl of vehicle (serum-free DMEM) was added to 10 wells as control. All wells were incubated for 28 hours at 37° C. in a humidified, 5% CO2 atmosphere. After incubation, 20 μl of Cell Titer 96 Aqueous One Solution was added to all wells. The plates were swirled gently and placed back in the incubator for 45 minutes and spectrophotometric absorbance was read at 490 nm. Results were analyzed statistically using one-way ANOVA.

neutrophils = assay: neutrophil migration assay, transwell plate; format: cell-based, human; details: for Percent Neutrophil Migration exp. 1: 0.4% HSA; for Percent Neutrophil Migration exp. 2: 0.04% HSA
Method: Peptides were synthesized and purified by the Microchemical Facility at Emory University or by SigmaGenesis. All peptides were analyzed by mass spectrometry after HPLC to assess purity. Approximately 0.5–2.0 milligrams of peptide were used to make fresh stock solutions (5 mg/mL in HBSS/HSA) for each migration assay. The peptide stock solutions were used to make more dilute solutions (1 mg/mL, 100 μg/mL, 10 μg/mL, 1 μg/mL, 100 ng/mL, and 10 ng/mL) in HBSS/HSA for the assays.
Neutrophils were isolated from human blood (collected in Vacutainer™ tubes containing EDTA) by layering the blood/EDTA mixture (about 20 mL) on top of two layers of Histopaque™ 1119 (bottom layer, 18 mL) and 1077 (top layer, 7 mL) in 50 mL Falcon tubes. The tubes were centrifuged at 1800 rpm for 30 minutes (no brake). Four layers appeared in the tubes after the spin (from top to bottom layers): plasma, 1077, 1119, and red blood cells. The buffy coat between the plasma and 1077 layers contained lymphocytes, monocytes, and some platelets. The plasma layer, the buffy coat, and most of the 1077 layer was removed and discarded. The 1119 layer that contained the neutrophils was removed and was placed into a clean 50 mL tube. Dulbecco's Phosphate Buffered Saline (DPBS) was added to bring the volume to 50 mL. The cells were centrifuged for 15 minutes at 2100 rpm. The cells were resuspended in 10 mL of DPBS, transferred to 15 mL tubes, and centrifuged again for 10 minutes at 2000 rpm. This process was repeated to wash the cells a second time. After the supernatant was removed, the red blood cells were lysed by adding 6 mL of cold sterile water to each 15 mL of supernatant. Cells were mixed in the water for only 30 seconds. Six mL of cold 2% sterile saline was then added. Cells were centrifuged again for 10 minutes at 2000 rpm. The red supernatant (containing hemoglobin from red blood cells) was removed. This process of red blood cell lysis was repeated two more times to remove all of the red blood cells. After most of the red blood cells were removed, neutrophils were resuspended in 10 mL of HBSS/HSA for counting with trypan blue.
A neutrophil migration assay was performed in duplicate using a 24-well transwell plate (3 μm pore size for membrane). Transwell membranes were pre-moistened with 20–40 μL of HBSS/HSA (0.04–0.4%). Chemotactic solutions (500 μL) were added to the bottom of each well. […] Transwells were then placed into the chemotactic solutions. The plate was placed into the incubator (37° C., 5% CO2) for one hour. Cells that migrated through the membrane were counted using trypan blue.
In the neutrophil migration experiments, neutrophils that were isolated were approximately 95% viable. […]

[2] = test system: normal human epidermal keratinocytes; assay: keratinocyte proliferation, Cell Titer 96, OD 490 nm; format: cell-based; details: 48 hours
Method: The proliferative response of these human skin keratinocytes to the 19mer peptide was measured in a 96-well assay system using keratinocyte basal medium (KBM, Clonetics, catalog number CC-3103) as a control. […] The plates were incubated for 24 hours at 37° C. in a humidified 5% CO2 atmosphere. […] In addition, 100 μl of vehicle KBM was added to 10 wells as control. The plate was incubated for 48 hours at 37° C. in a humidified, 5% CO2 atmosphere. After incubation, 20 μl of Cell Titer 96 Aqueous One Solution was added to all wells. The plate was swirled gently and placed back in the incubator for 3 hours. The spectrophotometric absorbance of each well was read at 490 nm. Results were analyzed statistically using one-way ANOVA.

MMP-2 = molecular target: T1, MMP-2 (Homo sapiens, UniProt P08253); assay: isothermal titration calorimetry with MMP-2; format: binding; details: ITC, 10 mM NaCl at 25° C.
T1 sequence (P08253 110-660): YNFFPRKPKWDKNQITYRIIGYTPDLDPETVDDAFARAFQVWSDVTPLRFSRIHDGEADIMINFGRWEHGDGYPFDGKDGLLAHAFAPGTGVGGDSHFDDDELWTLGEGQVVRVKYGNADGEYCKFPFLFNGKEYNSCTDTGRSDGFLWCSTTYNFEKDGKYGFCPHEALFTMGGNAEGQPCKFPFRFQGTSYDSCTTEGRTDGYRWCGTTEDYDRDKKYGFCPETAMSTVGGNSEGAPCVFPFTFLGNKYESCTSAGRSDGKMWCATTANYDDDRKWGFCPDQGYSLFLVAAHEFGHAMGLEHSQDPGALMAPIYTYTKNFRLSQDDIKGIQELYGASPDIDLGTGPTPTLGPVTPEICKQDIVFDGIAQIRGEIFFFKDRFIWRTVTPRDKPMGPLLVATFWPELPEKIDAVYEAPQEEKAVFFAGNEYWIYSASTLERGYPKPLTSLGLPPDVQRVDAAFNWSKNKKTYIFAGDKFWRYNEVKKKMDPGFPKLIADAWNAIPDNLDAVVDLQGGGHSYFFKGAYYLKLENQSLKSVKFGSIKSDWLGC

[3] = MMP-2, 20 mM cacodylate (pH 6.8)

CC(C)[C@H](NC(=O)[C@H](CC(=O)O)NC(=O)[C@@H]1CCCN1C(=O)[C@H](CC(N)=O)NC(=O)CNC(=O)[C@H](CS)NC(=O)[C@H](CCCNC(=N)N)NC(=O)[C@@H]1CCCN1)C(=O)N[C@@H](C)C(=O)N[C@@H](CC(N)=O)C(=O)N[C@@H](Cc1ccc(O)cc1)C(=O)N[C@@H](CC(N)=O)C(=O)N[C@@H](Cc1ccccc1)C(=O)N[C@@H](Cc1ccccc1)C(=O)N1CCC[C@H]1C(=O)N[C@@H](CCCNC(=N)N)C(=O)N[C@@H](CCCCN)C(=O)N1CCC[C@H]1C(=O)N[C@@H](CCCCN)C(=O)O [Peptide 19-mer]
fibroblast cell growth versus control ([1]; 1×10^−4 M, P<0.001): even greater cell growth | fibroblast cell proliferation versus control ([1]; 1×10^−6 M, P<0.05): a small amount of cell proliferation | fibroblast cell density versus control ([1]; (19mer5), P<0.01): significantly greater cell density | Percent Neutrophil Migration exp. 1 (neutrophils; 1 μg/mL): 32% | Percent Neutrophil Migration exp. 1 (neutrophils; 10 μg/mL): 22% | Percent Neutrophil Migration exp. 2 (neutrophils; 100 μg/mL): 0% | Percent Neutrophil Migration exp. 1 (neutrophils; 100 μg/mL): 29% | effect on neutrophil migration (neutrophils; 1 mg/mL to 1 μg/mL): did not have an effect on neutrophil migration | Percent Neutrophil Migration exp. 2 (neutrophils; 1 mg/mL): 4% | Percent Neutrophil Migration exp. 1 (neutrophils; 1 mg/mL): 23% | keratinocyte cell growth versus control ([2]; 1×10^−4 M, P<0.001): even greater cell growth | keratinocyte cell density versus control ([2]; 1×10^−5 M, P<0.01): significantly greater cell density | keratinocyte cell proliferation versus control ([2]; 1×10^−6 M, P>0.05): only a small amount of cell proliferation | Stoichiometry (MMP-2; MMP-2 20 μM, 19-mer 1 mM, 20 mM cacodylate (pH 6.8)): 0.99 ± 0.03 | ΔH (MMP-2; [3]): -15.4 ± 2.05 kcal/mol | ΔS (MMP-2; [3]): −21.1 ± 1.8 cal mol^−1 K^−1
